Series [1] concerns the target Platelet-derived growth factor receptor beta (Homo sapiens, UniProt P09619). Briefly: Inhibition of PDGFRbeta.
Series [2] concerns the target Vascular endothelial growth factor receptor 2 (Homo sapiens, UniProt P35968). The series is described as follows: Inhibition of VEGFR2.
The target of series [3] is Epidermal growth factor receptor (Homo sapiens, UniProt P00533). The series is described as follows: Inhibition of EGFR.
Series [4] concerns the target Serine/threonine-protein kinase Nek2 (Homo sapiens, UniProt P51955, T175A). Briefly: Inhibition of human recombinant Nek2 T175A mutant by coupled pyruvate kinase/lactate dehydrogenase assay.
Substrate in series [5]: CC[C@H](C)[C@H](NC(=O)[C@H](CO)NC(=O)[C@H](CO)NC(=O)[C@H](CCCNC(=N)N)NC(=O)[C@H](Cc1ccccc1)NC(=O)[C@@H](NC(=O)CN)[C@@H](C)O)C(=O)N[C@@H](CCCNC(=N)N)C(=O)N[C@@H](CCCNC(=N)N)C(=O)N[C@@H](CC(C)C)C(=O)N[C@@H](CO)C(=O)N[C@H](C(=O)N[C@@H](CCCNC(=N)N)C(=O)N[C@@H](CCCNC(=N)N)C(=O)N[C@@H](CCCNC(=N)N)C(=O)N[C@@H](Cc1ccc(O)cc1)C(=O)O)[C@@H](C)O
Briefly: Activity of human recombinant Nek2 T175A mutant assessed as substrate phosphorylation.

Epidermal growth factor receptor, sequence (P00533 whole entry): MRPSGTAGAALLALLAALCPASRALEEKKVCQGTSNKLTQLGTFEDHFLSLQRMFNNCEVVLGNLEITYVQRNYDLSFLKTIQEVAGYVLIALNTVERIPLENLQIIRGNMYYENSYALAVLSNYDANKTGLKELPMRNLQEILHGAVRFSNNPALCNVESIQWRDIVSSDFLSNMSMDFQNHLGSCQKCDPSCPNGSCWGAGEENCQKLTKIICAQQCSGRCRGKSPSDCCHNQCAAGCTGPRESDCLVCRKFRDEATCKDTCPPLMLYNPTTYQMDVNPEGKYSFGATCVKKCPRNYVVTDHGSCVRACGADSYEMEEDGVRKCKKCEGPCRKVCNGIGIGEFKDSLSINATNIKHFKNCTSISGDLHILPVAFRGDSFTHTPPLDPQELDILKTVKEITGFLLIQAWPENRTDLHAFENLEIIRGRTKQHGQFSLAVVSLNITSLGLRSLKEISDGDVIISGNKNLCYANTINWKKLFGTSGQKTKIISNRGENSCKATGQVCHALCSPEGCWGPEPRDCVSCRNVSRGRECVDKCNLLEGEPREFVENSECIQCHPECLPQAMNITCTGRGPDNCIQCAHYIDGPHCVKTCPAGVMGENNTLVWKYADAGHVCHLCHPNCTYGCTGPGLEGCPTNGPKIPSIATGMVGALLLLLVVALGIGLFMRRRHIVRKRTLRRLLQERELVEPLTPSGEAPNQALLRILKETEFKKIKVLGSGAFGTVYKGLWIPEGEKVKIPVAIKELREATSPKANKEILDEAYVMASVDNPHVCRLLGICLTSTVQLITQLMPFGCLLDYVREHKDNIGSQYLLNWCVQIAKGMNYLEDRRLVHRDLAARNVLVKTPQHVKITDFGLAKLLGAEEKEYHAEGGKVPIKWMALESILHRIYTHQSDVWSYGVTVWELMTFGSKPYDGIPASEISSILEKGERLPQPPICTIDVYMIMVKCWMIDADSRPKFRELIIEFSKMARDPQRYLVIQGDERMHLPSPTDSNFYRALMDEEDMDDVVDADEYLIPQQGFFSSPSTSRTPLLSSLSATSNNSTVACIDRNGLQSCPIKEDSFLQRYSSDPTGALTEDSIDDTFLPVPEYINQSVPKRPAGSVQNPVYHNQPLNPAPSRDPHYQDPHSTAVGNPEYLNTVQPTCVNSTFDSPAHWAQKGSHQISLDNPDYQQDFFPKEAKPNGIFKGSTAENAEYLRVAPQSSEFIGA
Vascular endothelial growth factor receptor 2, sequence (P35968 whole entry): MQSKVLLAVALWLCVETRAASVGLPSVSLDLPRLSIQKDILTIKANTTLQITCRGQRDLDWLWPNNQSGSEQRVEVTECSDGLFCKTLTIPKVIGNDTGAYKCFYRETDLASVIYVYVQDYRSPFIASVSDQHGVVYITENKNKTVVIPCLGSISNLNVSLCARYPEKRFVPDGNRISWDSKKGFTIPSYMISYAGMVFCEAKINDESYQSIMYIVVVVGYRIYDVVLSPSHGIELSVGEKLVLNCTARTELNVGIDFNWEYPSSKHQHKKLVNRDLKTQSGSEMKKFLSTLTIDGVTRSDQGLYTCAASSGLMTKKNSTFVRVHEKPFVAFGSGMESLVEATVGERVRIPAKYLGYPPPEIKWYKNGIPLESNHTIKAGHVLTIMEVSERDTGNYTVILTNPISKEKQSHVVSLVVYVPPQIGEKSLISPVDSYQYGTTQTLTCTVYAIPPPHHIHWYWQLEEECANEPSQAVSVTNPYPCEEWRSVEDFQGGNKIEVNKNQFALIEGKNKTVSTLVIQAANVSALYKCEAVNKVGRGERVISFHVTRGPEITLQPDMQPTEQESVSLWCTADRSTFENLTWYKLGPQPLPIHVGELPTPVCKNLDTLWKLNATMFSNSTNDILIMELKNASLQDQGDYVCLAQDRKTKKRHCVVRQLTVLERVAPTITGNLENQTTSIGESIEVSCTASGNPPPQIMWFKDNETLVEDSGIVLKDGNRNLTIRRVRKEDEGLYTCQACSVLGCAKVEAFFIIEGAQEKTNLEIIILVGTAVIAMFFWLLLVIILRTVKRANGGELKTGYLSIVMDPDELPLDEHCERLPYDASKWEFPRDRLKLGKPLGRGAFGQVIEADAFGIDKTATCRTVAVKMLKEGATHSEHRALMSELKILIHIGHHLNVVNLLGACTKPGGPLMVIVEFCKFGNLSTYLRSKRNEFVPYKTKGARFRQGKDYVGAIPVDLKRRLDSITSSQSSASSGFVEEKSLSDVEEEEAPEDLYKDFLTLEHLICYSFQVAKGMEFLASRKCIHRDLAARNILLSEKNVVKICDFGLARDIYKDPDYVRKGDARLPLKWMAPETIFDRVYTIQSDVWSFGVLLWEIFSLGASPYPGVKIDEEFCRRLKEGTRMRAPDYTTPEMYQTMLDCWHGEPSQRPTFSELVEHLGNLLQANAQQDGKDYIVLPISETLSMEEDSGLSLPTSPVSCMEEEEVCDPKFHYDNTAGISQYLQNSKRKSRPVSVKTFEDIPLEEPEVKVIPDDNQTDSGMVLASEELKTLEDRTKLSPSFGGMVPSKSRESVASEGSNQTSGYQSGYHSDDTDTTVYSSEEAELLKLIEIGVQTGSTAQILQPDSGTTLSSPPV
Platelet-derived growth factor receptor beta, sequence (P09619 whole entry): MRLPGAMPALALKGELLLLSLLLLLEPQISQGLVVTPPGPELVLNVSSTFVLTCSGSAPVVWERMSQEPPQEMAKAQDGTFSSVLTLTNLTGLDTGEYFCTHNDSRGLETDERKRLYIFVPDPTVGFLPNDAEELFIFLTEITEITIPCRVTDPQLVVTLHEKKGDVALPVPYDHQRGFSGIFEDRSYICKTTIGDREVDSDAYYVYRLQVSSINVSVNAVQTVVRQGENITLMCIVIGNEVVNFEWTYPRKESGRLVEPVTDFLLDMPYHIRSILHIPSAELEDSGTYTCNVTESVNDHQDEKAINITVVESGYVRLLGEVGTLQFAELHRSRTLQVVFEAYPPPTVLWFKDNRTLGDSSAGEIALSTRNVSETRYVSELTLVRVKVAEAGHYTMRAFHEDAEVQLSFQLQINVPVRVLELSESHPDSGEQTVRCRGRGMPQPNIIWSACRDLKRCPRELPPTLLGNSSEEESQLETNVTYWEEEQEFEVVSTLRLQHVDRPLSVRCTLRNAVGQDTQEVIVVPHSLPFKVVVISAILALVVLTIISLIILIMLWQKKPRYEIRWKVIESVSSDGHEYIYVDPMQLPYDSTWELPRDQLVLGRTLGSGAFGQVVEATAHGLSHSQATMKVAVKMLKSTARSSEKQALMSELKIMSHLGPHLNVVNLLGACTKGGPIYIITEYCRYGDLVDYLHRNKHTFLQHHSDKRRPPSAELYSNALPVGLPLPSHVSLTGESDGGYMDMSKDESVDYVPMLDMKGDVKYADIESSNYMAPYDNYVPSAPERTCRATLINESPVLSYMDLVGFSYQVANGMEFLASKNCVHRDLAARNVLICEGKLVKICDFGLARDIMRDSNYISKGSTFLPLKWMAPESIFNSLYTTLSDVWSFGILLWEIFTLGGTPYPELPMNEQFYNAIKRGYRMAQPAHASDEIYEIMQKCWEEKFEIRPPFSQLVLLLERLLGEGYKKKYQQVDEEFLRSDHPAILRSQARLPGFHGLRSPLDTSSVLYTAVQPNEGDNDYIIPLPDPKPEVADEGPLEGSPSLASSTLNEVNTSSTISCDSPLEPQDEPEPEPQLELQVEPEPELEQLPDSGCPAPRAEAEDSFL

For `CCN(CC)CCNC(=O)c1c(C)[nH]c(/C=C2\C(=O)Nc3ccc(Cl)cc32)c1C` [SU-11652], the IC50 (in general, the point on the concentration scale where inhibition reaches its midpoint) in series [1] is 3 µM; in series [2], 3 µM; in series [3], 3 µM; in series [4] it was 8 µM.

B1: Serine/threonine-protein kinase Nek2 (Homo sapiens), P51955 T175A (protein)
chain: MPSRAEDYEVLYTIGTGSYGRCQKIRRKSDGKILVWKELDYGSMTEAEKQMLVSEVNLLRELKHPNIVRYYDRIIDRTNTTLYIVMEYCEGGDLASVITKGTKERQYLDEEFVLRVMTQLTLALKECHRRSDGGHTVLHRDLKPANVFLDGKQNVKLGDFGLARILNHDTSFAKAFVGTPYYMSPEQMNRMSYNEKSDIWSLGCLLYELCALMPPFTAFSQKELAGKIREGKFRRIPYRYSDELNEIITRMLNLKDYHRPSVEEILENPLIADLVADEQRRNLERRGRQLGEPEKSQDSSPVLSELKLKEIQLQERERALKAREERLEQKEQELCVRERLAEDKLARAENLLKNYSLLKERKFLSLASNPELLNLPSSVIKKKVHFSGESKENIMRSENSESQLTSKSKCKDLKKRLHAAQLRAQALSDIEKNYQLKSRQILGMR
On to B1, for which, in series [5], the Km – broadly, the substrate concentration at which the rate is half of its maximum – is 90 µM and the kcat (in general, the maximal rate divided by the concentration of active sites) was found to be 0.283 s⁻¹.

(Values after ChEMBL document CHEMBL1156432, “Structure and regulation of the human Nek2 centrosomal kinase” (J Biol Chem, 2007).)
